Experiments:
Assay type in all cases: in vivo
[1] = test system: ryegrass, Italian (Italian ryegrass, Lolium multiflorum); assay: Test C postemergence, Italian ryegrass; conditions: for Ryegrass, Italian plant response rating: visual injury, 0 to 100 scale (0 no effect, 100 complete control); for Plant response rating (0 to 100 scale), Ryegrass, Italian: 0 is no effect, 100 is complete control
Procedure, shortened: (§1)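 Steps: sow in loam soil blended with sand; treat soil preemergence by directed spray, or treat young plants (2–10 cm, one to two leaves) postemergence; hold in greenhouse 10 or 12 days; rate injury visually relative to untreated controls on a 0–100 scale.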

[2] = test system: wheat (Triticum aestivum); assay: Test C preemergence, wheat; conditions: 0 is no effect, 100 is complete control
[3] = test system: corn (Zea mays); assay: Test C preemergence, corn; conditions: 0 is no effect, 100 is complete control
Procedure, shortened: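 Pre: soil sprayed at seeding. Post: seedlings treated at 1–2 leaves (2–10 cm). Vehicle non-phytotoxic solvent mix with surfactant; loam–sand medium; greenhouse; visual injury read at 10 or 12 days, scale 0–100.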

[4] = test system: galium (catchweed bedstraw, Galium aparine); assay: Test C postemergence, galium; conditions: for Galium plant response rating: visual injury, 0 to 100 scale (0 no effect, 100 complete control); for Plant response rating (0 to 100 scale), Galium: 0 is no effect, 100 is complete control
[5] = test system: kochia (Bassia scoparia); assay: Test C preemergence, kochia; conditions: 0 is no effect, 100 is complete control
Procedure, shortened: as §1

[6] = test system: blackgrass (Alopecurus myosuroides); assay: Test C postemergence, blackgrass; conditions: visual injury, 0 to 100 scale (0 no effect, 100 complete control)
Procedure, shortened: as §1

[7] = test system: kochia (Bassia scoparia); assay: Test C postemergence, kochia; conditions: for Kochia plant response rating: visual injury, 0 to 100 scale (0 no effect, 100 complete control); for Plant response rating (0 to 100 scale), Kochia: 0 is no effect, 100 is complete control
Procedure, shortened: as §1

[8] = test system: rice (Oryza sativa); assay: Test D flooded paddy test, rice; parameters: key: 0 = no effect, 100 = complete control; conditions: 250 g ai/ha, Flood; applied to paddy water at 2-leaf stage; visual rating after 13 days; scale 0 (no effect) to 100 (complete control)
Procedure, shortened: (§2)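 2-leaf plants; flood 3 cm over soil; cpd into paddy water; depth maintained; greenhouse 13 d; visual rating vs controls, 0 = no effect, 100 = complete control; dash = no result.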

[9] = test system: sedge, umbrella (small-flower umbrella sedge, Cyperus difformis); assay: Test D flooded paddy test, umbrella sedge; parameters: key: 0 = no effect, 100 = complete control; conditions: 250 g ai/ha, Flood; applied to paddy water at 2-leaf stage; visual rating after 13 days; scale 0 (no effect) to 100 (complete control)
Procedure, shortened: as §2

| SMILES | Ryegrass, Italian plant response rating ([1]; 31 g ai/ha Postemergence) | Plant response rating (0 to 100 scale), Ryegrass, Italian ([1]; 125 g ai/ha Postemergence) | Plant response rating (0 to 100 scale), Wheat ([2]; 31 g ai/ha Preemergence) | Plant response rating (0 to 100 scale), Wheat ([2]; 125 g ai/ha Preemergence) | Plant response rating (0 to 100 scale), Corn ([3]; 31 g ai/ha Preemergence) | Plant response rating (0 to 100 scale), Corn ([3]; 125 g ai/ha Preemergence) | Galium plant response rating ([4]; 31 g ai/ha Postemergence) | Plant response rating (0 to 100 scale), Galium ([4]; 125 g ai/ha Postemergence) | Plant response rating (0 to 100 scale), Kochia ([5]; 31 g ai/ha Preemergence) | Plant response rating (0 to 100 scale), Kochia ([5]; 125 g ai/ha Preemergence) | Blackgrass plant response rating ([6]; 31 g ai/ha Postemergence) | Kochia plant response rating ([7]; 31 g ai/ha Postemergence) | Plant response rating (0 to 100 scale), Kochia ([7]; 125 g ai/ha Postemergence) | Plant response rating, Rice [8] | Plant response rating, Sedge, Umbrella [9] | Ryegrass, Italian plant response rating ([1]; 125 g ai/ha Postemergence) | Galium plant response rating ([4]; 125 g ai/ha Postemergence) | Blackgrass plant response rating ([6]; 125 g ai/ha Postemergence) | Kochia plant response rating ([7]; 125 g ai/ha Postemergence) |
| --- | --- | --- | --- | --- | --- | --- | --- | --- | --- | --- | --- | --- | --- | --- | --- | --- | --- | --- | --- |
| CCOC(=O)N(c1cc(N2CCC(OC3CC3)C2=O)c(C)cc1C)S(=O)(=O)C(F)(F)F (stereo not drawn) [Compound 19] | 0 | 50 | 0 | 10 | 0 | 0 | 30 | 90 | 0 | 70 | 0 | 30 | 70 | 0 | 0 |  |  |  |  |
| Cc1cc(C)c(N2CCC(OCC3CC3)C2=O)cc1NS(=O)(=O)C(F)(F)F (stereo not drawn) [Compound 22] | 70 | 80 | 90 | 100 | 90 | 90 | 100 | 100 | 90 | 100 | 20 | 60 | 70 | 55 | 95 |  |  |  |  |
| Cc1c(NS(=O)(=O)C(F)(F)F)cc(N2CCC(OC3CCC3)C2=O)c(C)c1F (stereo not drawn) [Compound 25] | 20 |  | 60 | 100 | 30 | 90 | 100 | 100 | 70 | 100 | 0 | 60 | 90 | 15 | 90 | 70 |  |  |  |
| Cc1c(NS(=O)(=O)C(F)(F)F)cc(N2CCC(OC3CC3)C2=O)c(C)c1F (stereo not drawn) [Compound 26] | 60 |  | 60 | 100 | 60 | 90 | 100 | 100 | 100 | 100 | 40 | 70 | 90 | 65 | 95 | 100 |  |  |  |
| Cc1c(N2CCC(OC3CCC3)C2=O)cc(N(COC(=O)C(C)(C)C)S(=O)(=O)C(F)(F)F)c(C)c1F (stereo not drawn) [Compound 28] | 40 |  | 20 | 30 | 0 | 20 | 90 | 100 | 20 | 90 | 10 | 50 | 80 | 30 | 95 | 40 |  |  |  |
| Cc1cc(Cl)c(N(COC(=O)C(C)(C)C)S(=O)(=O)C(F)(F)F)cc1N1CCC(OC2CC2)C1=O (stereo not drawn) [Compound 33] | 20 |  | 10 | 40 | 30 | 60 | 100 | 100 | 100 | 100 | 0 | 80 | 90 | 45 | 90 | 90 |  |  |  |
| Cc1cc(C)c(N2CCC(OC3COC3)C2=O)cc1NS(=O)(=O)C(F)(F)F (stereo not drawn) [Compound 34] | 40 |  | 30 | 80 | 10 | 80 | 100 | 100 | 90 | 100 | 30 | 80 | 90 | 25 | 80 | 90 |  |  |  |
| Cc1c(NS(=O)(=O)C(F)(F)F)cc(N2CCCC(OC3CCC3)C2=O)c(C)c1F (stereo not drawn) [Compound 36] | 0 |  | 40 | 100 | 30 | 90 | 60 | 80 | 20 | 90 | 20 | 40 | 80 | 0 | 95 | 40 |  |  |  |
| Cc1c(N2CCCC(OC3CC3)C2=O)cc(N(COC(=O)C(C)(C)C)S(=O)(=O)C(F)(F)F)c(C)c1F (stereo not drawn) [Compound 37] | 0 |  | 0 | 20 | 0 | 10 | 60 | 90 | 0 | 90 | 0 | 50 | 70 | 0 | 95 | 60 |  |  |  |
| CC(=O)N(c1cc(N2CCC(OC3CC3)C2=O)c(C)cc1Cl)S(=O)(=O)C(F)(F)F (stereo not drawn) [Compound 38] | 30 |  | 40 | 90 | 20 | 80 | 90 | 100 | 100 | 100 | 40 | 80 | 90 | 0 | 75 | 70 |  |  |  |
| COC(=O)N(c1cc(N2CCC(OC3CC3)C2=O)c(C)cc1Cl)S(=O)(=O)C(F)(F)F (stereo not drawn) [Compound 40] | 60 |  | 60 | 100 | 50 | 90 | 80 | 100 | 90 | 100 | 10 | 70 | 90 | 0 | 90 | 80 |  |  |  |
| Cc1cc(C)c(N2CCC(OCC3CC3(F)F)C2=O)cc1NS(=O)(=O)C(F)(F)F (stereo not drawn) [Compound 41] | 30 |  | 90 | 100 | 90 | 100 | 100 |  | 100 | 100 | 40 | 70 |  | 10 | 70 | 100 | 100 | 60 | 80 |
| Cc1cc(C)c(N2CCC(OCC3CCCO3)C2=O)cc1NS(=O)(=O)C(F)(F)F (stereo not drawn) [Compound 42] | 20 |  | 30 | 90 | 0 | 70 | 50 |  | 20 | 90 | 0 | 10 |  | 15 | 90 | 70 | 90 | 50 | 60 |
| Cc1cc(C)c(N2CCC(OCC3CCC3)C2=O)cc1NS(=O)(=O)C(F)(F)F (stereo not drawn) [Compound 43] | 30 |  | 20 | 100 | 40 | 100 | 70 |  | 60 | 80 | 0 | 20 |  | 30 | 95 | 70 | 90 | 50 | 60 |
